Source: the NIST ThermoML archive (doi:10.1007/s10765-007-0223-x)
Numbers after ± are expanded uncertainties.

Test: xn = mol fraction of the nth substance listed
Details: 101 kPa, Liquid; for speed of sound: Single path-length method

## COC(C)(C)C [2-methoxy-2-methylpropane] + Cc1ccccc1
305.65 K, x1 = 0.053
  mass density: 848.195 ± 0.42 kg/m3
305.65 K, x1 = 0.116
  mass density: 840.022 ± 0.43 kg/m3
305.65 K, x1 = 0.199
  mass density: 829.282 ± 0.45 kg/m3
305.65 K, x1 = 0.301
  mass density: 816.062 ± 0.47 kg/m3
305.65 K, x1 = 0.371
  mass density: 807.159 ± 0.48 kg/m3
305.65 K, x1 = 0.463
  mass density: 795.249 ± 0.49 kg/m3
305.65 K, x1 = 0.61
  mass density: 776.592 ± 0.52 kg/m3
305.65 K, x1 = 0.688
  mass density: 766.747 ± 0.54 kg/m3
305.65 K, x1 = 0.797
  mass density: 752.961 ± 0.56 kg/m3
305.65 K, x1 = 0.902
  mass density: 739.7 ± 0.57 kg/m3
305.65 K, x1 = 0.943
  mass density: 734.343 ± 0.58 kg/m3
305.65 K, x1 = 1
  mass density: 726.444 ± 0.58 kg/m3
308.15 K, x1 = 0.053
  speed of sound: 1245.8 ± 2.1 m/s
  mass density: 845.842 ± 0.42 kg/m3
308.15 K, x1 = 0.116
  speed of sound: 1228.3 ± 2.1 m/s
  mass density: 837.654 ± 0.43 kg/m3
308.15 K, x1 = 0.199
  speed of sound: 1207.5 ± 2.1 m/s
  mass density: 826.891 ± 0.45 kg/m3
308.15 K, x1 = 0.301
  speed of sound: 1180.9 ± 2.1 m/s
  mass density: 813.64 ± 0.47 kg/m3
308.15 K, x1 = 0.371
  speed of sound: 1161.8 ± 2.1 m/s
  mass density: 804.72 ± 0.48 kg/m3
308.15 K, x1 = 0.463
  speed of sound: 1137.8 ± 2.1 m/s
  mass density: 792.78 ± 0.5 kg/m3
308.15 K, x1 = 0.61
  speed of sound: 1098.8 ± 2.1 m/s
  mass density: 774.07 ± 0.52 kg/m3
308.15 K, x1 = 0.688
  speed of sound: 1077.9 ± 2.1 m/s
  mass density: 764.201 ± 0.54 kg/m3
308.15 K, x1 = 0.797
  speed of sound: 1049 ± 2.1 m/s
  mass density: 750.369 ± 0.56 kg/m3
308.15 K, x1 = 0.902
  speed of sound: 1020.4 ± 2.1 m/s
  mass density: 737.069 ± 0.58 kg/m3
308.15 K, x1 = 0.943
  speed of sound: 1008 ± 2.1 m/s
  mass density: 731.692 ± 0.59 kg/m3
308.15 K, x1 = 1
  speed of sound: 990.99 ± 2.1 m/s
  mass density: 723.763 ± 0.58 kg/m3
310.65 K, x1 = 0.053
  speed of sound: 1235.2 ± 2.1 m/s
  mass density: 843.486 ± 0.43 kg/m3
310.65 K, x1 = 0.116
  speed of sound: 1217.6 ± 2.1 m/s
  mass density: 835.279 ± 0.44 kg/m3
310.65 K, x1 = 0.199
  speed of sound: 1196.7 ± 2.1 m/s
  mass density: 824.494 ± 0.45 kg/m3
310.65 K, x1 = 0.301
  speed of sound: 1170.1 ± 2.1 m/s
  mass density: 811.214 ± 0.47 kg/m3
310.65 K, x1 = 0.371
  speed of sound: 1150.9 ± 2.1 m/s
  mass density: 802.273 ± 0.48 kg/m3
310.65 K, x1 = 0.463
  speed of sound: 1126.8 ± 2.1 m/s
  mass density: 790.303 ± 0.5 kg/m3
310.65 K, x1 = 0.61
  speed of sound: 1087.7 ± 2.1 m/s
  mass density: 771.541 ± 0.53 kg/m3
310.65 K, x1 = 0.688
  speed of sound: 1066.9 ± 2.1 m/s
  mass density: 761.642 ± 0.54 kg/m3
310.65 K, x1 = 0.797
  speed of sound: 1037.9 ± 2.1 m/s
  mass density: 747.769 ± 0.56 kg/m3
310.65 K, x1 = 0.902
  speed of sound: 1009.1 ± 2.1 m/s
  mass density: 734.423 ± 0.58 kg/m3
310.65 K, x1 = 0.943
  speed of sound: 996.73 ± 2.1 m/s
  mass density: 729.029 ± 0.59 kg/m3
310.65 K, x1 = 1
  speed of sound: 979.62 ± 2.1 m/s
  mass density: 721.069 ± 0.59 kg/m3
313.15 K, x1 = 0.053
  speed of sound: 1224.5 ± 2.1 m/s
  mass density: 841.124 ± 0.43 kg/m3
313.15 K, x1 = 0.116
  speed of sound: 1207 ± 2.1 m/s
  mass density: 832.902 ± 0.44 kg/m3
313.15 K, x1 = 0.199
  speed of sound: 1186 ± 2.1 m/s
  mass density: 822.092 ± 0.46 kg/m3
313.15 K, x1 = 0.301
  speed of sound: 1159.3 ± 2.1 m/s
  mass density: 808.78 ± 0.47 kg/m3
313.15 K, x1 = 0.371
  speed of sound: 1140.1 ± 2.1 m/s
  mass density: 799.819 ± 0.49 kg/m3
313.15 K, x1 = 0.463
  speed of sound: 1115.9 ± 2.1 m/s
  mass density: 787.815 ± 0.51 kg/m3
313.15 K, x1 = 0.61
  speed of sound: 1076.7 ± 2.1 m/s
  mass density: 769.004 ± 0.53 kg/m3
313.15 K, x1 = 0.688
  speed of sound: 1055.9 ± 2.1 m/s
  mass density: 759.075 ± 0.55 kg/m3
313.15 K, x1 = 0.797
  speed of sound: 1026.8 ± 2.1 m/s
  mass density: 745.157 ± 0.57 kg/m3
313.15 K, x1 = 0.902
  speed of sound: 997.95 ± 2.1 m/s
  mass density: 731.765 ± 0.59 kg/m3
313.15 K, x1 = 0.943
  speed of sound: 985.49 ± 2.1 m/s
  mass density: 726.353 ± 0.6 kg/m3
313.15 K, x1 = 1
  speed of sound: 968.16 ± 2.1 m/s
  mass density: 718.357 ± 0.59 kg/m3
315.65 K, x1 = 0.053
  speed of sound: 1214 ± 2.1 m/s
315.65 K, x1 = 0.116
  speed of sound: 1196.4 ± 2.1 m/s
315.65 K, x1 = 0.199
  speed of sound: 1175.3 ± 2.1 m/s
315.65 K, x1 = 0.301
  speed of sound: 1148.5 ± 2.1 m/s
315.65 K, x1 = 0.371
  speed of sound: 1129.3 ± 2.1 m/s
315.65 K, x1 = 0.463
  speed of sound: 1105 ± 2.1 m/s
